Results: US12383626B2, “Polyoxazoline-drug conjugates with novel pharmacokinetic properties” (priority 2019, dated 2025)
Where “and” joins values, the source holds several entries; their conditions need not be identical. Equal values may be shown once.

What was measured:
[1] = Log P (n-octanol/water partitioning)
[2] = male, Sprague Dawley, rat, in vivo, sc, 0.5 mg/kg
Procedure: The plasma levels of drugs released into the blood stream were measured in rodent (Sprague Dawley rats) and non-human primates (Macaca fascicularis, cynomolgus monkeys) following single subcutaneous injections of their respective POZ conjugates with different linkers and drug loading wt %.
Male Sprague Dawley naive rats (age 8-9 weeks, weight 200-250 g) were acquired and placed in rat cages and allowed at least 3 days of acclimatization before the start of the dosing. Each test group contained 3 rats. The POZ conjugates were dissolved 5% dextrose injection and the pH of the solution was adjusted to about 4.0 with 0.1 N hydrochloric acid. Each animal received a single subcutaneous (SC) injection of test article solution equivalent to a dose of 1.5-1.6 mg/kg (based in drug equivalents) and at a volume of 1 mL/kg, and into the left flank using a 23 G BD precision glide needle. […] All blood samples were collected in pre-labeled BD Microtainer tubes containing NaF/disodium EDTA, gently mixed and placed in an ice batch. Plasma was harvested by centrifugation at 3000 rpm for 15 minutes at 4° C. Plasma aliquots of 100 μL were collected in separate tubes containing 10 μL of a solution of 3N HCl acid, gently mixed and immediately frozen and stored at −70° C.
The plasma samples were processed by the ‘protein crash’ method using cold acetonitrile.

C=C(C)[C@@H]1CCC(C)=C[C@H]1c1c(O)cc(CCCCC)cc1O [Cannabidiol, cannabidiol]
Log Poct/wat ([1]; at 25° C., free drug): 6.1

CCCCCCC(C)(C)c1cc(O)c2c(c1)OC(C)(C)[C@H]1CC=C(CO)C[C@H]21 [Dexanabinol, dexanabinol]
logP [1]: 7.6

CCCN(CCc1cccs1)[C@H]1CCc2c(O)cccc2C1 [Rotigotine, rotigotine]
logP (physchem): 4.9 | time to clear the body [2]: less than 24 hours

CCCCCc1cc(O)c2c(c1)OC(C)(C)[C@@H]1CCC(C)=C[C@@H]21 [Δ^9-THC, d9-tetrahydrocannabinol]
Log P ([1]; free drug, listed as THC): 7.2 and 7.0
